Results published in US8772319B2 (priority 2004, dated 2014).
Several values for one entry are separate records, joined by “and”; a condition that tells them apart may be missing. Equal entries are not always repeated. Structures can show the parent of a compound that is named as a salt. Where two headings read alike, the source gives them in different places.

Legend:
male Swiss-Webster mice [1] = assay: Locomotor activity, compound alone, 1-h session; type: in vivo, mouse; conditions: for ED50: Mus musculus, ip, 1 h, read-out: ED50, dose producing 1/2 maximal stimulant activity (S, stimulation); for ME/CME, Maximal Effect/Cocaine Maximal Effect: mouse locomotor activity; for mode of action: ligand alone study; for effect on spontaneous LMA: compound alone
Protocol: (§1) 3. Locomotor Activity. […] Panels of infrared beams (16 beams) and corresponding photodetectors were located in the horizontal direction along the sides of each activity chamber. […] Just prior to placement in the apparatus, all mice received a saline injection IP. In all studies, horizontal activity (interruption of 1 photocell beam) was measured for 1-h within 10-min periods. Testing was conducted with one mouse per activity chamber. […] Plot the mean (±SEM) maximal stimulant activity (total counts in the 30 min period divided by 3) vs dose. Perform a log10 transformation of the 30 min period average counts for individual subjects to homogenize variances for subsequent analyses. […] Fit the 30 min period average counts across subjects to a function of log10 dose using least-squares curve-fitting analyses (i.e. TableCurve software from Jandel). Estimate the maximum effect from the resultant dose-response curve. […] Determine the ED50 (dose that produces ½ maximal stimulant activity) from a linear regression analysis of the ascending portion (up to the dose that produces a maximal effect) of the curve. […] Plot the mean (±SEM) activity (total counts in the 30 min period divided by 3) vs dose. Perform a log10 transformation of the 30 min period average counts for individual subjects to homogenize variances for subsequent analyses. Conduct an ANOVA and contrast (specified a priori) each dose of the test compound to the vehicle to determine significant (p<0.05) dose effects. Conduct a linear least-squares regression analysis; regress the min period average counts across subjects over the descending portion of the curve against the log10 dose of the test compound. […] Perform a log10 transformation of the 30 min period average counts for individual subjects to homogenize variances for subsequent analyses. […] Conduct a linear least-squares regression analysis; regress the 30 min period average counts across subjects over the descending portion of the curve against the log10 dose of the test compound. […] Locomotor Activity 8-hour time course/dose response study. […] A panel of infrared beams (16 beams) and corresponding photodetectors were located in the horizontal direction along the sides of each activity chamber. A 7.5-W incandescent light above each chamber provided dim illumination. Fans provided an 80-dB ambient noise level within the chamber. […] In all studies, horizontal activity (interruption of photocell beams) was measured for 8-h within 10-min periods, beginning at 0800 hrs (2 hours after lights on). Testing was conducted with one mouse per activity chamber. Compound alone study.

male Swiss-Webster mice [2] = assay: Locomotor activity 8-hour time course/dose response study; conditions: for ED50: Mus musculus, ip, 8 h, read-out: ED50, dose producing 1/2 maximal stimulant activity (S, stimulation)
Protocol: as §1

[3] = target: T1, human dopamine transporter (hDAT) (Homo sapiens, UniProt Q01959); assay: biochemical; type: binding
male Swiss-Webster mice [4] = assay: Cocaine/compound interaction study on locomotor activity; type: in vivo, mouse; conditions: for Attenuation of cocaine-induced LMA: 20 mg/kg of cocaine; for AD50, dose attenuating cocaine-induced stimulation by 50%: Table 8, ligand-cocaine interaction study, 20 mg/kg cocaine IP
[5] = target: T1, human dopamine transporter (hDAT); assay: cell-based
[6] = target: T2, human norepinephrine transporter (hNET) (Homo sapiens, UniProt P23975); assay: biochemical; conditions: read-out: NET binding affinity Ki
[7] = target: T3, human serotonin transporter (hSERT) (Homo sapiens, UniProt P31645); assay: cell-based
[8] = target: T2, human norepinephrine transporter (hNET); assay: cell-based; conditions: read-out: Reuptake Inhibition [3H]NE IC50
[9] = target: T3, human serotonin transporter (hSERT); assay: biochemical; conditions: [125I]RTI-55, read-out: SERT binding affinity Ki
[10] = Table 5, [125I]RTI-55, oxalate salts
[11] = Table 8, mouse, IP, ligand alone, 1-h session
[12] = Reuptake Inhibition [3H]5-HT IC50, Table 1-1
[13] = Reuptake Inhibition [3H]DA IC50, Table 1-1
[14] = Table 5, [125I]RTI-55, oxalate salts, read-out: DAT binding affinity Ki
[15] = Table 6, read-out: Reuptake Inhibition [3H]DA IC50

T3 sequence (P31645 whole entry): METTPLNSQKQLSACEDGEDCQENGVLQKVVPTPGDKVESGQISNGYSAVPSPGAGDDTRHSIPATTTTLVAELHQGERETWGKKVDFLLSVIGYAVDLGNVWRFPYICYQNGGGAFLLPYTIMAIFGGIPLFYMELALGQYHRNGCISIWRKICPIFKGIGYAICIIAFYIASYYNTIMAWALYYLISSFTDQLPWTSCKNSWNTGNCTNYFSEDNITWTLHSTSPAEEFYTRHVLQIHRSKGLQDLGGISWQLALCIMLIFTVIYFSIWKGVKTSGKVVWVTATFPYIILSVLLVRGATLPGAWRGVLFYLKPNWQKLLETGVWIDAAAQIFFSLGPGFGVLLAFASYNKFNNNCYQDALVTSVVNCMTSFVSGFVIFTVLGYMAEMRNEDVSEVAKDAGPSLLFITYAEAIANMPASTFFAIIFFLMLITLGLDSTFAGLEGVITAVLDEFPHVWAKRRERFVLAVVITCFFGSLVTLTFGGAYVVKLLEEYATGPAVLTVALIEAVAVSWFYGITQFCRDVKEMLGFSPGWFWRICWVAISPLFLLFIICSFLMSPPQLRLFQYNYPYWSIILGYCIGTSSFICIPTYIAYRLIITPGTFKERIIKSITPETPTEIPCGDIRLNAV
T2 sequence (P23975 whole entry): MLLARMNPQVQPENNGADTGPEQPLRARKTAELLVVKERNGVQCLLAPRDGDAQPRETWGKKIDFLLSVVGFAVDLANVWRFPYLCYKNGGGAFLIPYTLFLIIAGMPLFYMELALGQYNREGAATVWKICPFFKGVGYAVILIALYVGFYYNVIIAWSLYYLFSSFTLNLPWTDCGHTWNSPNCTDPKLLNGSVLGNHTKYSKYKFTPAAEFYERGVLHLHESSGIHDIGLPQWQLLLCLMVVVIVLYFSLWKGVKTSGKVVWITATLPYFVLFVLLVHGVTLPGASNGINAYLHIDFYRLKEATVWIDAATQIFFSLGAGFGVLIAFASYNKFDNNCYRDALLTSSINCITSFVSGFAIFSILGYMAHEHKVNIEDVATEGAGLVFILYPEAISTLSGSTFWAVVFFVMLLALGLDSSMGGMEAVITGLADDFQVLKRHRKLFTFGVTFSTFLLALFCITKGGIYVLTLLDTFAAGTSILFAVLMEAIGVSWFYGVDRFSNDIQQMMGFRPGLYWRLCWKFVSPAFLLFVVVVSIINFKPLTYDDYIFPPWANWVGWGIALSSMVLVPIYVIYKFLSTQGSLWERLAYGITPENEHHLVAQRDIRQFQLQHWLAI
T1 sequence (Q01959 whole entry): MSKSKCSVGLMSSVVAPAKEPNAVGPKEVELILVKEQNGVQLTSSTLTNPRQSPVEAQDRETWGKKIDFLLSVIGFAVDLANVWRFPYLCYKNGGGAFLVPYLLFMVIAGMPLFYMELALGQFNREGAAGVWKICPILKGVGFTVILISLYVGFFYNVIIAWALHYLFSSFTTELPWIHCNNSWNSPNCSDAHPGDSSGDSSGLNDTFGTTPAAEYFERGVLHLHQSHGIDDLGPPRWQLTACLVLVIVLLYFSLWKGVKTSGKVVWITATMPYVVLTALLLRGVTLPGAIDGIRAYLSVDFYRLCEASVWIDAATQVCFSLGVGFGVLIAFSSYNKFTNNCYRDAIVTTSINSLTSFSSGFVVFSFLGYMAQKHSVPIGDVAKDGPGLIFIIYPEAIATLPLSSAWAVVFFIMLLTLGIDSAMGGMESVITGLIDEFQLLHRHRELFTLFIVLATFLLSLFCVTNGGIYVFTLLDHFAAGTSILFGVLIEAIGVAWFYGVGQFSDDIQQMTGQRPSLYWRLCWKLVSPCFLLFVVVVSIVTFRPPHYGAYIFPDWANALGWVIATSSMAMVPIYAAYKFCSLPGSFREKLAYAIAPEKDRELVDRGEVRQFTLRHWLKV

## Fc1ccc(C(OCCCCN2CCN(c3ccccc3F)CC2)c2ccc(F)cc2)cc1 (as salt: oxalate) [Compound 30, 1-(2-Fluorophenyl)-4-[4-[bis(4-fluorophenyl)methoxy]butyl]piperazine]
other
  melting point: 156 to 158 °C

## Fc1ccc(C(OCCN2CCN(CCCc3ccccc3)CC2)c2ccc(F)cc2)cc1 [GBR 12909, reference compound]
Male Swiss-Webster mice [1]
  ED50: 6.24 mg/kg
Male Swiss-Webster mice [1]; Table 8
  ME/CME, Maximal Effect/Cocaine Maximal Effect: 1.22
Male Swiss-Webster mice [2]
  ED50: 6.9 mg/kg
Male Swiss-Webster mice [2]; Table 9, 8 hours
  ME/CME, Maximal Effect/Cocaine Maximal Effect: 0.73

## Fc1ccc(C(OCCCCN2CCN(c3ccccc3F)CC2)c2ccc(F)cc2)cc1 [Compound 30, 1-(2-Fluorophenyl)-4-[4-[bis(4-fluorophenyl)methoxy]butyl]piperazine]
Male Swiss-Webster mice [1]
  ED50: 0.015 mg/kg
Male Swiss-Webster mice [1]; Table 8
  mode of action: monophasic
  ME/CME, Maximal Effect/Cocaine Maximal Effect: 0.49
Male Swiss-Webster mice [1]; mouse
  effect on spontaneous LMA: significant increase
[3]; Table 5
  Binding Ratios NET/DAT: 10.8
  Binding Ratios SERT/DAT: 0.8
Male Swiss-Webster mice [4]
  Attenuation of cocaine-induced LMA: failed to attenuate
  AD50, dose attenuating cocaine-induced stimulation by 50%: no attenuation
[5]; Table 6
  Discrimination Ratios (DR) [3H]DA reuptake/DAT binding: 11.9

## Fc1ccc(C(OCCCCN2CCN(c3ccccc3)CC2)c2ccc(F)cc2)cc1 (as salt: oxalate) [Compound 29, 1-Phenyl-4-[4-[bis(4-fluorophenyl)methoxy]butyl]piperazine]
other
  melting point: 185 to 187 °C

## Fc1ccc(C(OCCCCN2CCN(c3cccc(C(F)(F)F)c3)CC2)c2ccc(F)cc2)cc1 [Compound 36, 1-[3-(Trifluoromethyl)phenyl]-4-[4-[bis(4-fluorophenyl)methoxy]butyl]piperazine]
[6]; [10]
  Ki: 0.222 ± 0.0097 µM
Male Swiss-Webster mice [1]; Table 8
  mode of action: monophasic
Male Swiss-Webster mice [1]; [11]
  ID50, dose producing 1/2 maximal depressant activity (I, inhibition): 113 mg/kg and 113/I^g mg/kg
Male Swiss-Webster mice [1]; mouse
  effect on spontaneous LMA: Significant suppression
[3]; Table 5
  Binding Ratios NET/DAT: 6.8
  Binding Ratios SERT/DAT: 6.8
Male Swiss-Webster mice [4]
  AD50, dose attenuating cocaine-induced stimulation by 50%: 18.35 mg/kg
[5]; Table 6
  Discrimination Ratios (DR) [3H]DA reuptake/DAT binding: 11.7
Male Swiss-Webster mice [2]
  ED50: 1.1 mg/kg
Male Swiss-Webster mice [2]; Table 9, 8 hours
  ME/CME, Maximal Effect/Cocaine Maximal Effect: 0.46
Male Swiss-Webster mice [2]; Table 9, ligand alone study, 8 hours
  mode of action: monophasic

## O=C(NCc1ccc(F)cc1)N1CCN(CCCCOC(c2ccc(F)cc2)c2ccc(F)cc2)CC1 [Compound 5]
[7]; [12]
  IC50: 0.006 ± 0.001 µM
[6]; Table 1, [125I]RTI-55
  Ki: 0.706 ± 0.153 µM
[8]; Table 1-1
  IC50: 0.051 ± 0.004 µM
[3]
  Ki: 437 ± 12 nM
[3]; Table 1
  Binding Ratios NET/DAT: 1.6
  Binding Ratios SERT/DAT: 0.2
[5]; [13]
  IC50: 53 ± 22 nM
[5]; Table 1-1
  Discrimination Ratios [3H]DA reuptake/DAT binding: 0.1
[9]; Table 1
  Ki: 275 ± 21 nM

## Fc1ccc(C(OCCCCN2CCN(C(=S)Nc3cccnc3)CC2)c2ccc(F)cc2)cc1 [Compound 6]
[7]; [12]
  IC50: 0.308 ± 0.102 µM
[6]; Table 1, [125I]RTI-55
  Ki: 2.45 ± 0.367 µM
[8]; Table 1-1
  IC50: 0.359 ± 0.108 µM
[3]
  Ki: 170 ± 24 nM
[3]; Table 1
  Binding Ratios NET/DAT: 14.4
  Binding Ratios SERT/DAT: 6.4
[5]; [13]
  IC50: 97 ± 19 nM
[5]; Table 1-1
  Discrimination Ratios [3H]DA reuptake/DAT binding: 0.6
[9]; Table 1
  Ki: 1080 ± 300 nM

## Fc1ccc(C(OCCCCN2CCN(c3ccccc3Cl)CC2)c2ccc(F)cc2)cc1 [Compound 32, 1-(2-Chlorophenyl)-4-[4-[bis(4-fluorophenyl)methoxy]butyl]piperazine]
[7]; Reuptake Inhibition [3H]5-HT IC50, Table 6
  IC50: 0.119 ± 0.033 µM
[6]; [10]
  Ki: 0.54 ± 0.18 µM
[8]; Table 6
  IC50: 0.29 ± 0.11 µM
[3]
  Ki: 67 ± 10 nM
[3]; Table 5
  Binding Ratios NET/DAT: 8.1
  Binding Ratios SERT/DAT: 1.3
[5]; Reuptake Inhibition [3H]DA IC50, Table 6
  IC50: 328 ± 34 nM
[5]; Table 6
  Discrimination Ratios (DR) [3H]DA reuptake/DAT binding: 4.9
[9]; Table 5, oxalate salts
  Ki: 88 ± 29 nM

## O=[N+]([O-])c1ccc(S(=O)(=O)N2CCN(CCCCOC(c3ccc(F)cc3)c3ccc(F)cc3)CC2)cc1 [Compound 42, 1-[4-[Bis(4-fluorophenyl)methoxy]butyl]-4-(4-nitrobenzenesulfonyl)piperazine]
[7]; Table 6, bound given in μM, read-out: Reuptake Inhibition [3H]5-HT IC50
  IC50: > 10 µM
[6]; Table 5, bound given in μM
  Ki: > 10 µM
[8]; Table 6, bound given in μM
  IC50: > 10 µM
Male Swiss-Webster mice [1]; [11]
  ED50, dose producing 1/2 maximal stimulant activity (S, stimulation): no activity
[3]; Table 5
  Binding Ratios NET/DAT: >13.2
  Binding Ratios SERT/DAT: 6.5
[3]; [14]
  Ki: 760 ± 220 nM
Male Swiss-Webster mice [4]
  Attenuation of cocaine-induced LMA: failed to attenuate
  AD50, dose attenuating cocaine-induced stimulation by 50%: no attenuation
[5]; Table 6
  Discrimination Ratios (DR) [3H]DA reuptake/DAT binding: 5.5
[5]; [15]
  IC50: 4200 ± 1100 nM
[9]; Table 5, oxalate salts
  Ki: 4930 ± 670 nM

## O=C(NS(=O)(=O)c1ccc(F)cc1)N1CCN(CCCCOC(c2ccc(F)cc2)c2ccc(F)cc2)CC1 [Compound 7]
[7]; Table 1-1, read-out: Reuptake Inhibition [3H]5-HT IC50
  IC50: 1.62 ± 0.769 µM
[6]; Table 1, [125I]RTI-55
  Ki: 2.69 ± 0.258 µM
[8]; Table 1-1
  IC50: 0.836 ± 0.093 µM
[3]; Table 1
  Binding Ratios NET/DAT: 8.1
  Binding Ratios SERT/DAT: 9.5
[3]; Table 1, [125I]RTI-55, read-out: DAT binding affinity Ki
  Ki: 334 ± 25 nM
[5]; Table 1-1
  Discrimination Ratios [3H]DA reuptake/DAT binding: 0.6
[5]; Table 1-1, read-out: Reuptake Inhibition [3H]DA IC50
  IC50: 206 ± 64 nM
[9]; Table 1
  Ki: 3160 ± 666 nM

## O=C1CN(CCCCOC(c2ccc(F)cc2)c2ccc(F)cc2)CCN1 [Compound 27, 2-Oxo-4-[4-[bis(4-fluorophenyl)methoxy]butyl]piperazine]
[7]; Table 6, read-out: Reuptake Inhibition [3H]5-HT IC50
  IC50: 5.34 ± 0.95 µM
[6]; Table 5, bound given in μM
  Ki: > 10 µM
[8]; Table 6, bound given in μM
  IC50: > 10 µM
[3]; Table 5
  Binding Ratios NET/DAT: >2.4
  Binding Ratios SERT/DAT: 0.4
[3]; [14]
  Ki: 4100 ± 790 nM
[5]; Table 6
  Discrimination Ratios (DR) [3H]DA reuptake/DAT binding: 0.6
[5]; [15]
  IC50: 2290 ± 200 nM
[9]; Table 5, oxalate salts
  Ki: 1800 ± 450 nM

## O=C(NCc1ccc(F)cc1)NC1CCN(CCCCOC(c2ccc(F)cc2)c2ccc(F)cc2)CC1 [Compound 18]
[7]; Reuptake Inhibition [3H]5-HT IC50, Table 3-1, bound given in μM
  IC50: > 10 µM
[6]; Table 3, [125I]RTI-55
  Ki: 0.043 µM
[8]; Table 3-1
  IC50: 1.67 ± 0.688 µM
[3]
  Ki: 1.7 nM
[3]; Table 3
  Binding Ratios NET/DAT: 25.3
  Binding Ratios SERT/DAT: 121
[5]; Reuptake Inhibition [3H]DA IC50, Table 3-1
  IC50: 1050 ± 291 nM
[5]; Table 3-1
  Discrimination Ratios [3H]DA reuptake/DAT binding: 618
[9]; Table 3
  Ki: 206 ± 37 nM
